Key:
[1] = system: HEK293 cells cotransfected with the FOP control vector; test: HEK293 FOP assay (control reporter with non-functional TCF elements); type: cell-based; details: 16 hours
Procedure, shortened: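 Compound series from 50 μM down to 15 nM, prediluted in DMSO then 50-fold into CAFTY buffer (pH 7.4, 2 mM Ca2+, 0.01% BSA), tested alongside TOP cells on a Geneticin-selected HEK293 FOP line whose TCF elements are replaced by a random sequence; recombinant human Wnt-3a applied at 2500-5 ng/ml.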

TNKS1 = biological target: T1, TNKS1 (Homo sapiens, UniProt O95271); test: TNKS1 Assay B (auto-parsylation, [3H]-NAD+ SPA); type: biochemical; details: 6 nM TNKS1, auto-parsylation, over night at room temperature
T1 construct: purchased BPS Bioscience, San Diego, USA 80579 (TNKS1 Histone Ribosylation Assay Kit)
T1 sequence (O95271 1-1327): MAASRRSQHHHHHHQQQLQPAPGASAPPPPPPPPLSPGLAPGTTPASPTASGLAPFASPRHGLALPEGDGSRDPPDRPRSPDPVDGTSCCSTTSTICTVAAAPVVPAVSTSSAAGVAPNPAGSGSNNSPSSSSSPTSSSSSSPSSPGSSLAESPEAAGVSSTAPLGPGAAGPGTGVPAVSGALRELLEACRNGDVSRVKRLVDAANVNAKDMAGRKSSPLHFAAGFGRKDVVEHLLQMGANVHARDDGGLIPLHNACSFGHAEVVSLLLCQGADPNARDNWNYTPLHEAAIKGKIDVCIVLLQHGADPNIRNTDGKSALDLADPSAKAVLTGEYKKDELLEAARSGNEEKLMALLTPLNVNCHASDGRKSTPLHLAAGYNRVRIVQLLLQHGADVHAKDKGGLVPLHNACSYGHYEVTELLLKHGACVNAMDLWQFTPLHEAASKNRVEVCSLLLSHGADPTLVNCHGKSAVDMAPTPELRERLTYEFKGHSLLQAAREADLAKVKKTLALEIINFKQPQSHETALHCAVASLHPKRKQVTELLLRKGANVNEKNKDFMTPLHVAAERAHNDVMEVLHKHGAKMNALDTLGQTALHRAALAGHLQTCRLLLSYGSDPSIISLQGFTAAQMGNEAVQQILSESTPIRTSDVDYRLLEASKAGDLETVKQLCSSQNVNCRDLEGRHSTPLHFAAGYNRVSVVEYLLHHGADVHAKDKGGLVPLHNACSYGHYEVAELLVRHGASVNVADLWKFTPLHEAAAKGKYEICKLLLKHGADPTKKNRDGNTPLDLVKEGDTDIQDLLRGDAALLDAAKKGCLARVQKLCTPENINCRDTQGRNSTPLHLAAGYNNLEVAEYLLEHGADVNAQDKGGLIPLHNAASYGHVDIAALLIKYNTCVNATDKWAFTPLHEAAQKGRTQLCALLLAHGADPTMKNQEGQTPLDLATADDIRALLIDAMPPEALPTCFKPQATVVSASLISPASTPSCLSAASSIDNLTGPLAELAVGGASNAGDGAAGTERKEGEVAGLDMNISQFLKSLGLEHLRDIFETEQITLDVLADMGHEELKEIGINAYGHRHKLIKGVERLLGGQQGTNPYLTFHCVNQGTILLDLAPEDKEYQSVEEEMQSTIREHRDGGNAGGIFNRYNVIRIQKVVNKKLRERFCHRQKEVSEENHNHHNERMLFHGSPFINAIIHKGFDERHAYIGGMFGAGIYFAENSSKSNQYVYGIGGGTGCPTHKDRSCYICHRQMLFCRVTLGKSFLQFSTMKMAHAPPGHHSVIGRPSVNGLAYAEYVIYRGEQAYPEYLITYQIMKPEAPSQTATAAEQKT

SMILES | IC50 (TNKS1) [nM] | IC50 ([1]; Homo sapiens) [nM] | IC50 [1] [nM]
O=C(N[C@H]1CC[C@]2(CCN(c3ccc(F)cc3Cl)C2=O)CC1)c1cnn2cccnc12 [Example 148, N-[(cis)-2-(2-chloro-4-fluorophenyl)-1-oxo-2-azaspiro[4.5]dec-8-yl]pyrazolo[1,5-a]pyrimidine-3-carboxamide] | 3900 | ≥ 50000 | 
CN(c1ccccc1)C(=O)[C@H]1CC[C@H](NC(=O)c2cnn3cccnc23)CC1 [Example 156, N-{trans-4-[methyl(phenyl)carbamoyl]cyclohexyl}pyrazolo[1,5-a]pyrimidine-3-carboxamide] | 390 | ≥ 50000 | 
COCC(C)NC(=O)c1nc[nH]c1C(=O)N[C@H]1CC[C@H](C(=O)Nc2cc(C(F)(F)F)ccc2Cl)CC1 (stereo partly drawn) [Example 143, N^5-(trans-4-{[2-chloro-5-(trifluoromethyl)phenyl]carbamoyl}cyclohexyl)-N^4-(1-methoxypropan-2-yl)-1H-imidazole-4,5-dicarboxamide] | 210 | 33000 | 
Cc1cc(F)cc(Cl)c1NC(=O)[C@H]1CC[C@H](NC(=O)c2cnn3cccnc23)CC1 [Example 151, N-{trans-4-[(2-chloro-4-fluoro-6-methylphenyl)carbamoyl]cyclohexyl}pyrazolo[1,5-a]pyrimidine-3-carboxamide] | 470 | ≥ 50000 | 
CNC(=O)c1[nH]cnc1C(=O)NC1CCC(C(=O)Nc2ccc(F)cc2Cl)CC1OC (stereo not drawn) [Example 36, N^4-{(1α,2β,4β)-4-[(2-chloro-4-fluorophenyl)carbamoyl]-2-methoxycyclohexyl}-N^5-methyl-1H-imidazole-4,5-dicarboxamide] | > 10000 |  | ≥ 50000
O=C(NCC1CCCO1)c1nc[nH]c1C(=O)N[C@H]1CC[C@H](C(=O)Nc2cc(C(F)(F)F)ccc2Cl)CC1 (stereo partly drawn) [Example 146, N^5-(trans-4-{[2-chloro-5-(trifluoromethyl)phenyl]carbamoyl}cyclohexyl)-N^4-(tetrahydrofuran-2-ylmethyl)-1H-imidazole-4,5-dicarboxamide] | 150 | 29000 | 
O=C(NC12CCC(C(=O)Nc3cnccc3Cl)(CC1)CC2)c1cnc2cccnn12 [Example 124, N-{4-[(4-chloropyridin-3-yl)carbamoyl]bicyclo[2.2.2]oct-1-yl}imidazo[1,2-b]pyridazine-3-carboxamide] | 230 | 8900 | 
Cc1cc(NC(=O)C23CCC(NC(=O)c4cnn5cccnc45)(CC2)CC3)c(Cl)cc1F [Example 118, N-{4-[(2-chloro-4-fluoro-5-methylphenyl)carbamoyl]bicyclo[2.2.2]oct-1-yl}pyrazolo[1,5-a]pyrimidine-3-carboxamide] | 89 | ≥ 50000 | 
Cc1cc(C)n2ncc(C(=O)NC34CCC(C(=O)Nc5ccc(F)cc5Cl)(CC3)CC4)c2n1 [Example 125, N-{4-[(2-chloro-4-fluorophenyl)carbamoyl]bicyclo[2.2.2]oct-1-yl}-5,7-dimethylpyrazolo[1,5-a]pyrimidine-3-carboxamide] | 120 | ≥ 50000 | 
CNC(=O)c1nc[nH]c1C(=O)N[C@H]1CC[C@H](C(=O)Nc2ccc(C)cc2Cl)CC1 [Example 9, N^5-{trans-4-[(2-chloro-4-methylphenyl)carbamoyl]cyclohexyl}-N^4-methyl-1H-imidazole-4,5-dicarboxamide] | 85 | ≥ 50000 | 
Cc1cc(C)n2ncc(C(=O)NC34CCC(C(=O)Nc5cnccc5Cl)(CC3)CC4)c2n1 [Example 128, N-{4-[(4-chloropyridin-3-yl)carbamoyl]bicyclo[2.2.2]oct-1-yl}-5,7-dimethylpyrazolo[1,5-a]pyrimidine-3-carboxamide] | 88 | ≥ 50000 | 
CNC(=O)c1[nH]cnc1C(=O)NC12CCC(C(=O)Nc3c(F)cc(F)cc3Cl)(CC1)CC2 [Example 116, N^4-{4-[(2-chloro-4,6-difluorophenyl)carbamoyl]bicyclo[2.2.2]oct-1-yl}-N^5-methyl-1H-imidazole-4,5-dicarboxamide] | 580 | 8700 | 

Now those with a lower IC50 (TNKS1), led by results:

IC50 (TNKS1) [nM] | SMILES | IC50 ([1]; Homo sapiens) [nM] | IC50 [1] [nM]
37 | COCC(C)NC(=O)c1nc[nH]c1C(=O)N[C@H]1CC[C@@]2(CCN(c3ccc(F)cc3Cl)C2=O)CC1 (mixture of isomers) [Example 164, N^5-[(trans)-2-(2-chloro-4-fluorophenyl)-1-oxo-2-azaspiro[4.5]dec-8-yl]-N^4-(1-methoxypropan-2-yl)-1H-imidazole-4,5-dicarboxamide] | ≥ 50000 | 
4.1 | O=C(NCCN1CCCCC1)c1nc[nH]c1C(=O)N[C@H]1CC[C@@]2(CCN(c3ccc(F)cc3Cl)C2=O)CC1 [Example 161, N^5-[(trans)-2-(2-chloro-4-fluorophenyl)-1-oxo-2-azaspiro[4.5]dec-8-yl]-N^4-[2-(piperidin-1-yl)ethyl]-1H-imidazole-4,5-dicarboxamide] | ≥ 50000 | 
2.2 | O=C(NCCN1CCCCC1)c1nc[nH]c1C(=O)N[C@H]1CC[C@H](C(=O)Nc2cc(F)c(F)cc2Cl)CC1 [Example 4, N^5-{trans-4-[(2-chloro-4,5-difluorophenyl)carbamoyl]cyclohexyl}-N^4-[2-(piperidin-1-yl)ethyl]-1H-imidazole-4,5-dicarboxamide] | ≥ 50000 | 
13 | O=C(N[C@H]1CC[C@@]2(CCN(c3ccc(F)cc3Cl)C2=O)CC1)c1cnn2cccnc12 [Example 136, N-[(trans)-2-(2-chloro-4-fluorophenyl)-1-oxo-2-azaspiro[4.5]dec-8-yl]pyrazolo[1,5-a]pyrimidine-3-carboxamide] | ≥ 50000 | 
45 | O=C(NCC1CCCO1)c1nc[nH]c1C(=O)N[C@H]1CC[C@H](C(=O)Nc2cnccc2Cl)CC1 (stereo partly drawn) [Example 97, N^5-{trans-4-[(4-chloropyridin-3-yl)carbamoyl]cyclohexyl}-N^4-(tetrahydrofuran-2-ylmethyl)-1H-imidazole-4,5-dicarboxamide] | 18000 | 
77 | CNC(=O)c1nc[nH]c1C(=O)N[C@H]1CC[C@H](C(=O)Nc2c(F)cc(F)cc2Cl)CC1 [Example 6, N^5-{trans-4-[(2-chloro-4,6-difluorophenyl)carbamoyl]cyclohexyl}-N^4-methyl-1H-imidazole-4,5-dicarboxamide] | ≥ 50000 | 
48 | Cc1cc(C)n2ncc(C(=O)N[C@H]3CC[C@H](C(=O)Nc4c(F)cc(F)cc4Cl)CC3)c2n1 [Example 135, N-{trans-4-[(2-chloro-4,6-difluorophenyl)carbamoyl]cyclohexyl}-5,7-dimethylpyrazolo[1,5-a]pyrimidine-3-carboxamide] | ≥ 50000 | 
63 | Cc1cnc2c(C(=O)N[C@H]3CC[C@H](C(=O)Nc4ccncc4Cl)CC3)cnn2c1 [Example 104, N-{trans-4-[(3-chloropyridin-4-yl)carbamoyl]cyclohexyl}-6-methyl pyrazolo[1,5-a]pyrimidine-3-carboxamide] | ≥ 50000 | 
13 | CC(C)NC(=O)c1nc[nH]c1C(=O)N[C@H]1CC[C@@]2(CCN(c3ccc(F)cc3Cl)C2=O)CC1 [Example 162, N^5-[(trans)-2-(2-chloro-4-fluorophenyl)-1-oxo-2-azaspiro[4.5]dec-8-yl]-N^4-isopropyl-1H-imidazole-4,5-dicarboxamide] | 40000 | 
